Where two headings read alike, the source gives them in different places.
Key:
[1] = system: HIV-1 WT strain (IIIB); experiment: Anti-HIV-1 activity in MT-4 cells, MTT method, WT strain IIIB; format: cell-based
[2] = system: MT-4 cells; experiment: Cytotoxicity in mock-infected MT-4 cells, MTT method; format: cell-based; conditions: MTT method
[3] = system: HIV-1 K103N + Y181C (RES056); experiment: microbe, parasite or virus in culture; format: cell-based; conditions: for RF RES056: resistance fold, EC50 (mutant strain)/EC50 (WT strain); for SI RES056: selectivity index, ratio of CC50/EC50
[4] = system: HIV-1 L100I; experiment: microbe, parasite or virus in culture; format: cell-based; conditions: for EC50: Human immunodeficiency virus 1, MT4, read-out: EC50 L100I; for RF L100I: resistance fold, EC50 (mutant strain)/EC50 (WT strain); for SI L100I: selectivity index, ratio of CC50/EC50
[5] = system: HIV-1 K103N; experiment: microbe, parasite or virus in culture; format: cell-based; conditions: for RF K103N: resistance fold, EC50 (mutant strain)/EC50 (WT strain); for SI K103N: selectivity index, ratio of CC50/EC50
[6] = system: HIV-1 Y181C; experiment: microbe, parasite or virus in culture; format: cell-based; conditions: for RF Y181C: resistance fold, EC50 (mutant strain)/EC50 (WT strain); for SI Y181C: selectivity index, ratio of CC50/EC50
[7] = system: HIV-1 Y188L; experiment: microbe, parasite or virus in culture; format: cell-based; conditions: for RF Y188L: resistance fold, EC50 (mutant strain)/EC50 (WT strain); for SI Y188L: selectivity index, ratio of CC50/EC50
[8] = system: HIV-1 E138K; experiment: microbe, parasite or virus in culture; format: cell-based; conditions: for RF E138K: resistance fold, EC50 (mutant strain)/EC50 (WT strain); for SI E138K: selectivity index, ratio of CC50/EC50
[9] = system: HIV-1 F227L + V106A; experiment: microbe, parasite or virus in culture; format: cell-based; conditions: for RF F227L + V106A: resistance fold, EC50 (mutant strain)/EC50 (WT strain); for SI F227L + V106A: selectivity index, ratio of CC50/EC50
[10] = Cytotoxicity in mock-infected MT-4 cells, MTT method; format: cell-based; conditions: human
[11] = target: HIV-1 RT (Human immunodeficiency virus type 1 group M subtype B, UniProt P03366); experiment: HIV-1 RT inhibition assay; format: biochemical
[12] = In vivo pharmacokinetics in SD rats; parameters: species or system Sprague–Dawley (SD) rats
[13] = system: CYP1A2, CYP2C9, CYP2C19, CYP2D6 (range over isoforms); experiment: Cytochrome P450 inhibition assay, summary over isoforms; format: in vitro ADME; conditions: human, human liver microsomes
[14] = cited from earlier work
[15] = physchem
[16] = read-out: EC50 IIIB, MT-4 cells, MTT method, HIV-1 IIIB (WT)
[17] = Human immunodeficiency virus 1, IIIB, MT4, read-out: EC50 IIIB
[18] = Human immunodeficiency virus 1, MT4, read-out: EC50 RES056
[19] = Human immunodeficiency virus 1, MT4, read-out: EC50 K103N
[20] = Human immunodeficiency virus 1, MT4, read-out: EC50 Y181C
[21] = Human immunodeficiency virus 1, MT4, read-out: EC50 Y188L
[22] = Human immunodeficiency virus 1, MT4, read-out: EC50 E138K
[23] = Human immunodeficiency virus 1, MT4, read-out: EC50 F227L + V106A
[24] = Sprague-Dawley, rat, plasma, iv, 2 mg/kg
[25] = Sprague-Dawley, rat, plasma, po, 20 mg/kg

Compound	EC50 [1, 17] [nM]	EC50 [3, 18] [nM]	RF RES056 [3]	SI RES056 [3]	EC50 [4] [nM]	RF L100I [4]	SI L100I [4]	EC50 [5, 19] [nM]	RF K103N [5]	SI K103N [5]	EC50 [6, 20] [nM]	RF Y181C [6]	SI Y181C [6]	EC50 [7, 21] [nM]	RF Y188L [7]	SI Y188L [7]	RF E138K [8]	EC50 [9, 23] [nM]	RF F227L + V106A [9]	CC50 at 5 days [10] [nM]	other results
4-((1-(4-(4-Cyano-2,6-dimethylphenoxy)-7,8-dihydro-6H-thiopyrano[3,2-d]pyrimidin-2-yl)piperidin-4-yl)amino)benzenesulfonamide [19b]																					EC50 IIIB ([1]; MT-4 cells, MTT method, HIV-1 IIIB (WT)): lost potency; EC50 [1, 16]: > 16100 nM; CC50 [2]: 3070 ± 300 nM
Cc1cc(/C=C/C#N)cc(C)c1Oc1nc(Nc2ccc(C#N)cc2)nc2c1SCCC2 [15b, (E)-4-((4-(4-(2-Cyanovinyl)-2,6-dimethylphenoxy)-7,8-dihydro-6H-thiopyrano[3,2-d]pyrimidin-2-yl)amino)benzonitrile]	3.18 ± 1.21	23.5 ± 14.7	7.4	208	7.26 ± 0.51	2.3	674	6.42 ± 0.4	2.0	762	11.1 ± 3.39	3.5	441	23.3 ± 0.48	7.3	210	6.8	27.9 ± 9.17	8.8	4890 ± 620	Times greater activity than ETR, L100I ([4]; ratio of EC50 values vs ETR): 1.3 times; EC50 [8, 22]: 21.7 ± 7.55 nM; SI E138K [8]: 225; SI F227L + V106A [9]: 175; IC50 [11]: 101 ± 12 nM
Cc1cc(C#N)cc(C)c1Oc1nc(Nc2ccc(C#N)cc2)nc(N)c1Br [ETR, etravirine, reference compound]	2.81 ± 0.47	35.2 ± 19.7	12.5		9.13 ± 6.1	3.2		3.38 ± 0.69	1.2		14.1 ± 5.72	5.0		15.4 ± 6.07	5.5			16.3 ± 6.24	5.8	2200 ± 15	V (iv) ([12]; SD rats, iv 2 mg/kg, mean ± SD, n = 3): 8.85 ± 1.17 L/kg; AUC(0-inf) [12, 24]: 587 ± 48 ng·h/mL; AUC(0-t) [12, 24]: 576 ± 45 ng·h/mL; MRT inf [12, 24]: 1.1 ± 0.34 h; MRT last [12, 24]: 0.93 ± 0.23 h; clearance [12, 24]: 57 mL/min/kg; half-life [12, 24]: 1.8 ± 0.24 h; bioavailability ([12]; Sprague-Dawley, rat, plasma, oral, 20 mg/kg): 7.17%; AUC(0-inf) [12, 25]: 421 ± 153 ng·h/mL; AUC(0-t) [12, 25]: 395 ± 139 ng·h/mL; Cmax [12, 25]: 110 ± 34.1 ng/mL; MRT inf [12, 25]: 3.03 ± 0.14 h; MRT last [12, 25]: 2.55 ± 0.04 h; Tmax [12, 25]: 1 h; half-life [12, 25]: 1.82 ± 0.07 h; IC50 at 10 min [13]: 277 to 12000 nM; Water solubility (Sol.) [14]: < 1 µg/mL; solubility ([15]; pH 7, aqueous buffer): < 1 µg/mL; solubility ([15]; pH 7.4, aqueous buffer): < 1 µg/mL
Cc1ccnc2c1NC(=O)c1cccnc1N2C1CC1 [NVP, reference compound]			18.8						30.0			32.0			37.4		1.3		30.0		EC50 [1, 16]: 118 ± 66.9 nM; EC50 ([3]; read-out: EC50 RES056, MT-4 cells, MTT method, RES056 (K103N + Y181C)): 2220 ± 736 nM; EC50 ([5]; read-out: EC50 K103N, MT-4 cells, MTT method): 3550 ± 2410 nM; EC50 ([6]; read-out: EC50 Y181C, MT-4 cells, MTT method): 3780 ± 2580 nM; EC50 ([7]; read-out: EC50 Y188L, MT-4 cells, MTT method): 4420 ± 2470 nM; EC50 ([8]; read-out: EC50 E138K, MT-4 cells, MTT method): 158 ± 112 nM; EC50 ([9]; read-out: EC50 F227L + V106A, MT-4 cells, MTT method): 3540 ± 2750 nM; CC50 [2]: > 15000 nM
Cc1cc(/C=C/C#N)cc(C)c1Nc1ccnc(Nc2ccc(C#N)cc2)n1 [RPV, rilpivirine, reference compound]	1 ± 0.27					1.5			1.3						80		5.8		82		IC50 [11]: 118 ± 27 nM; IC50 at 10 min [13]: 335 to 9110 nM; Water solubility (Sol.) [14]: < 1 µg/mL
Cc1cc(C#N)cc(C)c1Oc1nc(Nc2ccc(C#N)cc2)nc2c1SCCC2 [compound 15a, 4-((2-((4-Cyanophenyl)amino)-7,8-dihydro-6H-thiopyrano[3,2-d]pyrimidin-4-yl)oxy)-3,5-dimethylbenzonitrile]	3.38 ± 3.17	85.3 ± 54.3	25.2	53	16.7 ± 4.51	4.9	271	6.41 ± 0.99	1.9	707	42.3 ± 4.45	12.5	107	20.7 ± 1.88	6.1	219	5.1	40.9	12.1	4530 ± 720	EC50 [8, 22]: 17.4 ± 2.24 nM; SI E138K [8]: 260; SI F227L + V106A [9]: 111
Cc1cc(C#N)cc(C)c1Oc1nc(Nc2ccc(C#N)cc2)nc2c1S(=O)(=O)CCC2 [compound 16b, 4-((2-((4-Cyanophenyl)amino)-5,5-dioxido-7,8-dihydro-6H-thiopyrano[3,2-d]pyrimidin-4-yl)oxy)-3,5-dimethylbenzonitrile]	1.44 ± 0.17	49.1 ± 14	34.1	381	21.8 ± 5.65	15.1	858	2.3 ± 0.15	1.6	8130	10.4 ± 1.44	7.2	1798	12.3 ± 2.27	8.5	1520	7.6	37.9 ± 21.3	26.3	18700 ± 8010	EC50 [8, 22]: 10.9 ± 0.32 nM; SI E138K [8]: 1716; SI F227L + V106A [9]: 493; IC50 [11]: 27 ± 11 nM

From article PMC10935503 (Acta Pharmaceutica Sinica. B, 2023)
